The target in this assay is T1, Caspase-3 (Recombinant human Caspase-3 protein (Active)) (Homo sapiens, UniProt P42574).
T1 sequence (P42574 29-175): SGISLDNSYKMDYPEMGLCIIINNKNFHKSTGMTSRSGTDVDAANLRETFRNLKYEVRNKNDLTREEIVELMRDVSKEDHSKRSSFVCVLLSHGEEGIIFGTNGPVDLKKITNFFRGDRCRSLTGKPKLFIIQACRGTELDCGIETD
T1 sequence (P42574 176-277): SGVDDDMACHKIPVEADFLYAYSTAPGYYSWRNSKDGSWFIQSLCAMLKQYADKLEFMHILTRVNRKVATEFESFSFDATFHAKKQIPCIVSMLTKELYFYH
Nature of the assay: SPR, Biacore T200, CM5 chip, immobilised caspase-3. The class given is binding.

One may read the Kd as a measure of binding affinity in units of concentration. On to `OC[C@H]1O[C@@H](OCCc2ccc(O)cc2)[C@H](O)[C@@H](O)[C@@H]1O` [Salidroside], for which the Kd worked out at 76.7 µM.
